Test results taken from patent US20110160279A1, “METHODS FOR TREATMENT AND PREVENTION OF OTOTOXICITY BY siRNA” (BOARD OF TRUSTEES OF SOUTHERN ILLINOIS UNIVERSITY, priority 2007, published 2011).

Key:
TRPV1 [1] = assay: TRPV1 immunoreactivity in rat cochlea sections; format: in vivo; settings: 72 h following cisplatin 13 mg/kg i.p.; confocal microscopy
Experimental: Cochleae perfused with 4% paraformaldehyde were processed for decalcification and sectioning as described in (Dunaway et al., 2003). TRPV1-1 antibody was diluted 1:100 and samples were incubated for 1 h at 37° C. incubator. Secondary antibody used was goat anti-rabbit IgG conjugated to horse radish peroxidase (Santa Cruz Biotechnology, Inc, Santa Cruz, Calif.) which was diluted 1:200. ABC staining system (Santa Cruz Biotechnology), which included a diaminobenzadine as a peroxidase substrate, was used for visualization of protein expression. Slides were imaged using Scion Imaging system (Frederick, Md.).
Rats were tested for hearing loss 72 h later using auditory brainstem evoked responses (ABRs). […] Cochleas obtained from these animals were decalcified, sectioned and processed for TRPV1 immunoreactivity using a polyclonal antibody (as described in Puntambekar et al., 2005). Visualization by confocal microscopy indicated TRPV1 immunoreactivity in the organ of Corti, supporting cells and spiral ganglion cells. […] The increases were 18±1 and 15±3 at 48 h and 72 h, respectively (FIG. 1C).

TRPV1 mRNA = assay: Real time RT-PCR of TRPV1 mRNA in rat cochlea; format: in vivo; settings: rat cochlea
Experimental: (§1) Animal procedures and sample collection: Male Wistar rats were used for this study. Pre-ABR's were performed 2-3 days before round window application of siTRPV1 or PBS. […] The cochleas were dissected and used for the preparation of total RNA or total protein extracts, or perfused with 2.5% glutaraldehyde for morphological studies by Scanning Electron Microscopy (SEM's) or 4% paraformaldehyde for immunocytochemistry.
(§2) RNA was isolated by adding 1 ml TR1 reagent to 100 mg of cochlear or cortical tissue or 0.5 ml TR1 reagent (Sigma, St. Louis, Mo.) per well of each six well plate, according to the manufacturer's instructions.
(§3) Real time reverse transcriptase polymerase chain reaction (RT-PCR): One microgram of total RNA was converted to cDNA using iScript cDNA Synthesis Kit (Bio-Rad, Hercules, Calif.), and qRTPCR was performed as described by (Mukherjea et al, 2006). Gene specific primer pairs were used for the various reactions and mRNA expression levels were normalized to the levels of GAPDH house keeping gene.
(§4) The rodent set of primers and siRNA were based on the homologous sequences in the rat and mouse cDNA sequences. The primers were purchased from Sigma Genosys (St. Louis, Mo.). Purified siRNA duplexes were purchased from Qiagen (Valencia, Calif.).

NOX3 mRNA [2] = assay: Real time RT-PCR of NOX3 mRNA in rat cochlea; format: in vivo; settings: cisplatin, 72 hrs
Experimental: as §1, §2, §3, §4

Rac1 [3] = assay: Real time RT-PCR of Rac1 transcript in rat cochlea; format: in vivo; settings: cisplatin (data not shown)
Experimental: as §2, §3
(§5) The rodent set of primers and siRNA were based on the homologous sequences in the rat and mouse cDNA sequences. The primers were purchased from Sigma Genosys (St. Louis, Mo.). Purified siRNA duplexes were purchased from Qiagen (Valencia, Calif.). Primers were as follows: Rodent NOX3 (sense): 5′-[…]-3′ (SEQ ID NO: 9) (antisense): 5′-[…]-3′ (SEQ ID NO: 10), Rodent-GAPDH (sense): 5′-[…]-3′ (SEQ ID NO: 11) (antisense): 5′-[…]-3′ (SEQ ID NO: 12), Rodent TRPV1 (sense): 5′-[…]-3′ (SEQ ID NO: 13), (antisense): 5-[…]-3′ (SEQ ID NO: 14), Rodent Rac-1 (sense): 5′-[…]-3′ (SEQ ID NO: 15), (antisense): 5′-[…]-3′ (SEQ ID NO: 16), Rodent gp-91 (sense) 5′-[…]-3′ (SEQ ID NO: 17), (antisense): 5′-[…]-3′ (SEQ ID NO: 18), and Rat p22 (sense): 5′-[…]-3′ (SEQ ID NO: 19), (antisense) 5′-[…]-3′ (SEQ ID NO: 20) […]

gp91 [4] = assay: Real time RT-PCR of gp91 transcript in rat cochlea; format: in vivo; settings: cisplatin (data not shown)
Experimental: as §2, §3, §5

TRPV1 [5] = format: cell-based, mouse; settings: cisplatin 2.5 μM, 24 h
Experimental: (§6) Immortalized organ of Corti cells derived from the mouse, UB/OC-1 cells, were obtained from Dr. Matthew Holley (Institute of Molecular Physiology, Addison Building, Western Bank, Sheffield, UK) and cultured in RPMI 1640 supplemented with 10% Fetalclone II (Hyclone, Logan, Utah) serum and penicillin-streptomycin. Cultures were grown in a 33° C. incubator in 10% CO2.
To further study the role of ROS generated via cochlear NADPH oxidases in the induction of TRPV1 in the cochlea, in vitro experiments were performed using the organ of Corti transformed hair cell line, UB/OC1 (Rivolta et al., Proc. R. Sco. Lond., 265, 1595-1603, 1998). […] Immunolabeling was quantitated by fluorescence imaging using a confocal microscope. […] The immunofluorescence in these groups was reduced by 60 and 70%, respectively (FIG. 2B). […] The increases in expression of these genes were inhibited by DPI (10 μM), indicative of a role or NADPH oxidase activity in the induction of these subunits (FIG. 2G).

TRPV1 protein = assay: Western blot of TRPV1 protein in UB-OC1 cells; format: cell-based, mouse; settings: cisplatin 2.5 μM
NOX3 mRNA [6] = assay: Real time RT-PCR of NOX3 mRNA in UB/OC-1 cells; format: cell-based, mouse; settings: cisplatin 2.5 μM
Experimental: as §6, §2, §3, §4

gp91 [7] = assay: Real time RT-PCR of gp91 mRNA in UB/OC-1 cells; format: cell-based, mouse; settings: cisplatin 2.5 μM
Experimental: as §6, §2, §3, §4

Rac1 [8] = assay: Real time RT-PCR of Rac1 mRNA in UB/OC-1 cells; format: cell-based, mouse; settings: cisplatin 2.5 μM
Experimental: as §6, §2, §3, §4

UB-OC1 cells = assay: Apoptosis by TUNEL staining in UB-OC1 cells; format: cell-based, mouse; settings: cisplatin 20 μM, 24 h
Experimental: as §6
Frag-EL DNA fragmentation kit and H2DCFDA dye was purchased from (Calbiochem, San Diego, Calif.). TRPV1 antibody (Neuromics, Edina, Minn.) and secondary goat anti rabbit antibody was purchased from Santa Cruz Biotechnology (Santa Cruz, Calif.).
(§7) The increases in these proteins were attenuated by capsazepine (10 μM), implicating TRPV1 in this process.

p53 = p53 protein expression in UB/OC-1 cells; format: cell-based, mouse; settings: cisplatin, 24 hr
Experimental: as §7

Bax = Bax protein expression in UB/OC-1 cells; format: cell-based, mouse; settings: cisplatin, 24 hr
Experimental: as §7

UB/OC-1 cells = assay: Intracellular Ca2+ with Fura4-AM in UB/OC-1 cells; format: cell-based, mouse; settings: cisplatin
Experimental: as §7

N.N.[Cl][Pt][Cl] [cisplatin]
elevation of TRPV1 immunoreactivity in hair cells and spiral ganglion cells (TRPV1 [1]): 2-3 fold
increase in TRPV1 transcripts (TRPV1 mRNA; 24 h following cisplatin): 15±1 fold
increase in TRPV1 transcripts (TRPV1 mRNA; 48 h following cisplatin): 18±1
increase in TRPV1 transcripts (TRPV1 mRNA; 72 h following cisplatin): 15±3
level of induction of TRPV1 by cisplatin (TRPV1 mRNA; lipoic acid experiment (FIG. 1D), 72 hrs): 5.5±1.5 fold
change in NOX3 transcript in the cochlea (NOX3 mRNA [2]): small but statistically significant increase
increase in Rac1 expression (Rac1 [3]): 478±85 fold
increase in gp91 expression (gp91 [4]): 1000±102 fold
induction in TRPV1 immunoreactivity over control vehicle treated cells (TRPV1 [5]): 71±29%
increase in TRPV1 protein by Western blotting (TRPV1 protein): 90%±10%
increase in NOX3 mRNA (NOX3 mRNA [6]): 2.7 fold
increase in gp91 mRNA (gp91 [7]): 2.8 fold
increase in Rac1 mRNA (Rac1 [8]): 2.1 fold
apoptotic cells (TUNEL) (UB-OC1 cells): ~80%
p53 protein (p53): increases
Bax protein (Bax): increases
intracellular Ca2+ (UB/OC-1 cells): increased intracellular Ca2+
